# Test system: Genes belonging to other category
# Assay: DNA chip mRNA expression in yeast, genes belonging to other category (Table 9)
# Format: cell-based, Saccharomyces cerevisiae S288C
# Procedure, shortened: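 S. cerevisiae S288C grown at 25° C. in YPD to log phase, then exposed 2 h to a toxicant at a growth-inhibiting, non-lethal concentration; untreated cells as control. Poly(A) mRNA reverse-transcribed with Cy3-dUTP or Cy5-dUTP, hybridized >12 h at 65° C. to whole-genome yeast DNA chip; value = fluorescence ratio treated/untreated.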
compound,measurement,setting,value
"S=C([S-])NCCNC(=S)[S-].[Zn+2] [(11), zinc N,N′-ethylenebis(dithiocarbamate)]",The level of expressed mRNA in the presence of chemical substance/The level of expressed mRNA in the absence of chemical substance,yeast gene YDR427W,1.2
same,The level of expressed mRNA in the presence of chemical substance/The level of expressed mRNA in the absence of chemical substance,yeast gene YDR432W,0.6
same,The level of expressed mRNA in the presence of chemical substance/The level of expressed mRNA in the absence of chemical substance,yeast gene YDR481C,1.2
same,The level of expressed mRNA in the presence of chemical substance/The level of expressed mRNA in the absence of chemical substance,yeast gene YDR488C,0.4
same,The level of expressed mRNA in the presence of chemical substance/The level of expressed mRNA in the absence of chemical substance,yeast gene YDR510W,1.6
same,The level of expressed mRNA in the presence of chemical substance/The level of expressed mRNA in the absence of chemical substance,yeast gene YEL042W,1.6
same,The level of expressed mRNA in the presence of chemical substance/The level of expressed mRNA in the absence of chemical substance,yeast gene YEL066W,1.9
same,The level of expressed mRNA in the presence of chemical substance/The level of expressed mRNA in the absence of chemical substance,yeast gene YER009W,1.4
same,The level of expressed mRNA in the presence of chemical substance/The level of expressed mRNA in the absence of chemical substance,yeast gene YER025W,1.2
same,The level of expressed mRNA in the presence of chemical substance/The level of expressed mRNA in the absence of chemical substance,yeast gene YER039C,1.2
same,The level of expressed mRNA in the presence of chemical substance/The level of expressed mRNA in the absence of chemical substance,yeast gene YER076C,0.7
same,The level of expressed mRNA in the presence of chemical substance/The level of expressed mRNA in the absence of chemical substance,yeast gene YER078C,1.3
same,The level of expressed mRNA in the presence of chemical substance/The level of expressed mRNA in the absence of chemical substance,yeast gene YER107C,0.7
same,The level of expressed mRNA in the presence of chemical substance/The level of expressed mRNA in the absence of chemical substance,yeast gene YER130C,0.9
same,The level of expressed mRNA in the presence of chemical substance/The level of expressed mRNA in the absence of chemical substance,yeast gene YER177W,1.9
same,The level of expressed mRNA in the presence of chemical substance/The level of expressed mRNA in the absence of chemical substance,yeast gene YFL022C,1.2
same,The level of expressed mRNA in the presence of chemical substance/The level of expressed mRNA in the absence of chemical substance,yeast gene YFL028C,1.3
same,The level of expressed mRNA in the presence of chemical substance/The level of expressed mRNA in the absence of chemical substance,yeast gene YFL038C,1.7
same,The level of expressed mRNA in the presence of chemical substance/The level of expressed mRNA in the absence of chemical substance,yeast gene YFL043C,1.1
same,The level of expressed mRNA in the presence of chemical substance/The level of expressed mRNA in the absence of chemical substance,yeast gene YFR006W,1.2
same,The level of expressed mRNA in the presence of chemical substance/The level of expressed mRNA in the absence of chemical substance,yeast gene YFR050C,1.4
same,The level of expressed mRNA in the presence of chemical substance/The level of expressed mRNA in the absence of chemical substance,yeast gene YFR051C,1.3
same,The level of expressed mRNA in the presence of chemical substance/The level of expressed mRNA in the absence of chemical substance,yeast gene YGL094C,0.6
same,The level of expressed mRNA in the presence of chemical substance/The level of expressed mRNA in the absence of chemical substance,yeast gene YGL150C,0.4
same,The level of expressed mRNA in the presence of chemical substance/The level of expressed mRNA in the absence of chemical substance,yeast gene YGL158W,0.2
same,The level of expressed mRNA in the presence of chemical substance/The level of expressed mRNA in the absence of chemical substance,yeast gene YGL207W,0.7
same,The level of expressed mRNA in the presence of chemical substance/The level of expressed mRNA in the absence of chemical substance,yeast gene YGL229C,1.1
same,The level of expressed mRNA in the presence of chemical substance/The level of expressed mRNA in the absence of chemical substance,yeast gene YGR136W,1.3
same,The level of expressed mRNA in the presence of chemical substance/The level of expressed mRNA in the absence of chemical substance,yeast gene YGR189C,1.5
same,The level of expressed mRNA in the presence of chemical substance/The level of expressed mRNA in the absence of chemical substance,yeast gene YGR213C,1.6
same,The level of expressed mRNA in the presence of chemical substance/The level of expressed mRNA in the absence of chemical substance,yeast gene YGR232W,1.3
same,The level of expressed mRNA in the presence of chemical substance/The level of expressed mRNA in the absence of chemical substance,yeast gene YGR239C,1.4
same,The level of expressed mRNA in the presence of chemical substance/The level of expressed mRNA in the absence of chemical substance,yeast gene YGR253C,2.4
same,The level of expressed mRNA in the presence of chemical substance/The level of expressed mRNA in the absence of chemical substance,yeast gene YGR257C,1.2
same,The level of expressed mRNA in the presence of chemical substance/The level of expressed mRNA in the absence of chemical substance,yeast gene YHR004C,0.8
same,The level of expressed mRNA in the presence of chemical substance/The level of expressed mRNA in the absence of chemical substance,yeast gene YHR071W,1.8
same,The level of expressed mRNA in the presence of chemical substance/The level of expressed mRNA in the absence of chemical substance,yeast gene YHR139C,3.5
same,The level of expressed mRNA in the presence of chemical substance/The level of expressed mRNA in the absence of chemical substance,yeast gene YHR142W,1.1
same,The level of expressed mRNA in the presence of chemical substance/The level of expressed mRNA in the absence of chemical substance,yeast gene YHR166C,0.6
same,The level of expressed mRNA in the presence of chemical substance/The level of expressed mRNA in the absence of chemical substance,yeast gene YHR185C,0.7
same,The level of expressed mRNA in the presence of chemical substance/The level of expressed mRNA in the absence of chemical substance,yeast gene YHR195W,1.4
same,The level of expressed mRNA in the presence of chemical substance/The level of expressed mRNA in the absence of chemical substance,yeast gene YHR205W,0.9
same,The level of expressed mRNA in the presence of chemical substance/The level of expressed mRNA in the absence of chemical substance,yeast gene YIL018W,1.2
same,The level of expressed mRNA in the presence of chemical substance/The level of expressed mRNA in the absence of chemical substance,yeast gene YIL123W,1.2
same,The level of expressed mRNA in the presence of chemical substance/The level of expressed mRNA in the absence of chemical substance,yeast gene YIL140W,0.9
same,The level of expressed mRNA in the presence of chemical substance/The level of expressed mRNA in the absence of chemical substance,yeast gene YJL073W,0.5
same,The level of expressed mRNA in the presence of chemical substance/The level of expressed mRNA in the absence of chemical substance,yeast gene YJL089W,0.6
same,The level of expressed mRNA in the presence of chemical substance/The level of expressed mRNA in the absence of chemical substance,yeast gene YJL113W,1.2
same,The level of expressed mRNA in the presence of chemical substance/The level of expressed mRNA in the absence of chemical substance,yeast gene YJL116C,2.9
same,The level of expressed mRNA in the presence of chemical substance/The level of expressed mRNA in the absence of chemical substance,yeast gene YJL138C,1.2

# Reference: patent US8192962B2, “Processes for detecting toxic substances” (Daikin Industries, Ltd., priority 2001, dated 2012)
